Consider 2 molecules from the supplement of paper PMC11451515.

The test system of the assay is P12-Ichikawa. As to the kind of experiment: cell viability relative to DMSO control; higher = less cytotoxic. Particulars: 48 h. Summed up:
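In 1536-well plates, 5 μl of leukemia cells were seeded per well: 500 cells/well for NOMO1 or SEM and 1000 cells/well for P12-Ichikawa. Each line had first been adapted for at least four passages in each medium. Library compounds in DMSO were pin-dosed at 11 threefold concentrations between 47 μM and 0.79 nM, and CellTiter-Glo One luminescence was read after 48 h at 37°C. Viability is a per-plate percentage relative to DMSO wells, with cell-free wells as background.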

Where [1] appears, read: RPMI 5 mM glucose + 10% dialyzed FBS, 0.000781 µM.
The mark [2] stands for this setting: RPMI 5 mM glucose + 10% dialyzed FBS, 0.00234 µM.
[3] abbreviates: RPMI 5 mM glucose + 10% dialyzed FBS, 0.00702 µM.
[4] abbreviates: RPMI 5 mM glucose + 10% dialyzed FBS, 0.0211 µM.
[5] abbreviates: RPMI 5 mM glucose + 10% dialyzed FBS, 0.0632 µM.
[6] abbreviates: RPMI 5 mM glucose + 10% dialyzed FBS, 0.19 µM.
The mark [7] stands for this setting: RPMI 5 mM glucose + 10% dialyzed FBS, 0.569 µM.
Setting [8] is: RPMI 5 mM glucose + 10% dialyzed FBS, 1.71 µM.
[9] abbreviates: RPMI 5 mM glucose + 10% dialyzed FBS, 5.12 µM.
Where [10] appears, read: RPMI 5 mM glucose + 10% dialyzed FBS, 15.4 µM.
[11] abbreviates: RPMI 5 mM glucose + 10% dialyzed FBS, 46.1 µM.

Consider `CC1CCN(c2cc(N3CCN(C)CC3)ccc2NC(=O)c2cc(C#N)c[nH]2)CC1`, for which the cell viability reads like this: under setting [1], 124%; under setting [2], 119%; under setting [3], 122%; under setting [4], 126%; under setting [5], 133%; under setting [6], 119%. Further, the cell viability was found to be 115% under setting [7]; 121% under setting [8]; 106% under setting [9]; 106% under setting [10]; 99.9% under setting [11].

On to `CC(C)C1=N[N](C\2=C1C(=O)N\C(=N2)CC3=CC=C(OCCO)C=C3)C4=C(Cl)C=CC=C4Cl`, for which the cell viability reads like this: (HPLM + 10% dialyzed FBS, 0.000781 µM) 116%; (HPLM + 10% dialyzed FBS, 0.00234 µM) 116%; (HPLM + 10% dialyzed FBS, 0.00702 µM) 109%; (HPLM + 10% dialyzed FBS, 0.0211 µM) 108%; (HPLM + 10% dialyzed FBS, 0.0632 µM) 107%; (HPLM + 10% dialyzed FBS, 0.19 µM) 44%. In addition, the cell viability was determined as 10.7% (HPLM + 10% dialyzed FBS, 0.569 µM); 5.9% (HPLM + 10% dialyzed FBS, 1.71 µM); 6.83% (HPLM + 10% dialyzed FBS, 5.12 µM); 6.62% (HPLM + 10% dialyzed FBS, 15.4 µM); 5.21% (HPLM + 10% dialyzed FBS, 46.1 µM); 118% under setting [1]. Moreover, the cell viability turned out to be 129% under setting [2]; 117% under setting [3]; 124% under setting [4]; 127% under setting [5]; 31.8% under setting [6]; 10.9% under setting [7]. Moreover, the cell viability under setting [8] is 5.95%, the cell viability under setting [9] came to 6.23%, the cell viability under setting [10] worked out at 6.55% and the cell viability under setting [11] amounted to 3.77%.

Broadly, the cell viability is a read-out of living cells in per cent, often relative to untreated cells.
